We go through four compounds from paper PMC5039751, “Profiling of core fucosylated N-glycans using a novel bacterial lectin that specifically recognizes α1,6 fucosylated chitobiose” (Scientific Reports, 2016).

Assay [1] deals with T1, SL2-1 (Streptomyces rapamycinicus, UniProt A0ABR6LWE4).
T1 construct: gene BJY27_006859; monomer with three ~40-residue repeats
T1 sequence (A0ABR6LWE4 31-188): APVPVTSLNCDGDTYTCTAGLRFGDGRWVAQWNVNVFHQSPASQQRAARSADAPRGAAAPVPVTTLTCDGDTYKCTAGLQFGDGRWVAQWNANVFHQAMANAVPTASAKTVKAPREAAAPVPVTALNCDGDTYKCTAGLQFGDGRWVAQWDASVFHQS
Briefly: isothermal titration calorimetry. The format is binding. The note with it: 20 mM sodium phosphate pH 7.4, 25 °C. The text has this: isothermal titration calorimetry on SL2-1

Assay [2] deals with T1, SL2-1. In words: lectin capture in Microcon-30 filter, UPLC-HILIC-FLR. The format is binding. The note with it: labelled compound (2-AB); mixture of four glycans, 4 pmol each, 20 μg SL2-1, 10 mM Tris-HCl pH 8.0, room temperature; proteinase K elution.

Take `CC(=O)N[C@H]1[C@H](O[C@H]2[C@H](O)[C@@H](NC(C)=O)C(O)O[C@@H]2CO[C@@H]2O[C@@H](C)[C@@H](O)[C@@H](O)[C@@H]2O)O[C@H](CO)[C@@H](O[C@@H]2O[C@H](CO[C@H]3O[C@H](CO)[C@@H](O)[C@H](O)[C@@H]3O[C@@H]3O[C@H](CO)[C@@H](O[C@@H]4O[C@H](CO[C@]5(C(=O)O)C[C@H](O)[C@@H](NC(C)=O)[C@H]([C@H](O)[C@H](O)CO)O5)[C@H](O)[C@H](O)[C@H]4O)[C@H](O)[C@H]3NC(C)=O)[C@@H](O)[C@H](O[C@H]3O[C@H](CO)[C@@H](O)[C@H](O)[C@@H]3O[C@@H]3O[C@H](CO)[C@@H](O[C@@H]4O[C@H](CO)[C@H](O)[C@H](O)[C@H]4O)[C@H](O)[C@H]3NC(C)=O)[C@@H]2O)[C@@H]1O` (stereo partly shown) [A1F, monosialo-fucosylated biantennary N-glycan]: the affinity at SL2-1 [1] (n = 1.85), expressed as Kd, was 1060 nM. Compound `CC(=O)N[C@H]1[C@H](O[C@H]2[C@H](O)[C@@H](NC(C)=O)C(O)O[C@@H]2CO[C@@H]2O[C@@H](C)[C@@H](O)[C@@H](O)[C@@H]2O)O[C@H](CO)[C@@H](O)[C@@H]1O` (stereo partly drawn) [N2F, α1-6 fucosylated chitobiose] returned a Kd at SL2-1 [1] (n = 2.01) of 1590 nM. Take `CC(=O)N[C@H]1[C@H](O[C@@H]([C@H](O)[C@H](CNc2ccccc2C(N)=O)NC(C)=O)[C@H](O)CO[C@@H]2O[C@@H](C)[C@@H](O)[C@@H](O)[C@@H]2O)O[C@H](CO)[C@@H](O[C@@H]2O[C@H](CO[C@H]3O[C@H](CO)[C@@H](O)[C@H](O)[C@@H]3O[C@@H]3O[C@H](CO)[C@@H](O[C@@H]4O[C@H](CO)[C@H](O)[C@H](O)[C@H]4O)[C@H](O)[C@H]3NC(C)=O)[C@@H](O)[C@H](O[C@H]3O[C@H](CO)[C@@H](O)[C@H](O)[C@@H]3O[C@@H]3O[C@H](CO)[C@@H](O[C@@H]4O[C@H](CO)[C@H](O)[C@H](O)[C@H]4O)[C@H](O)[C@H]3NC(C)=O)[C@@H]2O)[C@@H]1O` [NA2F, 2-aminobenzamide (2-AB)-labeled asialo-, galactosylated biantennary N-glycan with core α1-6 fucose]: the “% of total loaded recovered from lectin-bound fraction” value on SL2-1 [2] turned out to be 95%. Consider `CC(=O)N[C@H]1[C@H](O[C@@H]([C@H](O)[C@H](CNc2ccccc2C(N)=O)NC(C)=O)[C@H](O)CO[C@@H]2O[C@@H](C)[C@@H](O)[C@@H](O)[C@@H]2O)O[C@H](CO)[C@@H](O[C@@H]2O[C@H](CO[C@H]3O[C@H](CO)[C@@H](O)[C@H](O)[C@@H]3O)[C@@H](O)[C@H](O[C@H]3O[C@H](CO)[C@@H](O)[C@H](O)[C@@H]3O)[C@@H]2O)[C@@H]1O` [M3N2F, 2-aminobenzamide (2-AB)-labeled trimannosyl core N-glycan (paucimannose) with core α1-6 fucose], for which the “% of total loaded recovered from lectin-bound fraction” value at SL2-1 [2] was 91%.
